Test results from PubChem BioAssay AID493191 (Broad Institute, 2011).

system: MALME3 melanoma viability, CellTiter-Glo luminescence, 24 h; experiment: growth inhibition of MALME3 cells – cell-based, CellTiter-Glo, cherry-picked, orthogonal assay for MITF inhibitor project, dose response (AID 493191)

Compound | AC50 [µM]
COc1ccc(C(=O)/C=C/C(=O)N(CC(=O)NC2CCCCC2)CC2CCCO2)c(O)c1 (centres undefined) | 4.8
Cc1ccc(-n2cc(CNCCCn3ccnc3C)c(-c3ccc(F)cc3)n2)cc1 | 15.8
N#CC(C#N)=C1C=CC=CN1/C(=C\c1ccco1)C(=O)c1ccc(Br)cc1 | 24.6
CC(C)(C)C(=O)Cn1ncc(Cl)c(Cl)c1=O | 18
COc1ccc(C(=O)/C(C#N)=N/Nc2ccc([N+](=O)[O-])cc2)cc1 | 16
Oc1c(CN2CCCCC2)cc(COCc2ccccc2)c2cccnc12 | 10.4
CCOc1c(Br)cc(CNC2CCCCCCC2)cc1OC | 27.6
c1ccc2cc3c(NCCN4CCOCC4)ccnc3cc2c1 | 4.49
Cc1cc(C)cc(NC(=O)c2ccc([N+](=O)[O-])o2)c1 | 17.9
CCOc1cc(/C=N/N=C(N)N)ccc1OCc1ccc(Cl)cc1 | 18.8
O=C(/C=C/c1ccc(Cl)cc1)c1ccc([N+](=O)[O-])o1 | 24.5
O=C(Nc1ccc(N2CCCC2)c(Cl)c1)c1ccc([N+](=O)[O-])o1 | 11.1
O=c1c(Cl)c2oc3ccccc3nc-2c2ccccc12 | 14.3
O=[N+]([O-])c1ccc(S(=O)(=O)CC(CN2CCCCC2)N2CCCCC2)cc1 (centres undefined) | 13.4
N=c1n(CC(=O)c2ccc([N+](=O)[O-])cc2)c2ccccc2n1Cc1ccccc1 | 25.4
O=c1c2ccccc2nc(/C=C/c2ccc([N+](=O)[O-])o2)n1-c1ccc(O)cc1 | 14.5
CCCCCCCNC(=O)C1(CC2CC(c3ccc(Cl)cc3)=NO2)CCNCC1 (centres undefined) | 15.2
COc1ccc(NC(=O)CCC(=O)N/N=C/c2ccc([N+](=O)[O-])s2)cc1 | 28.2
Cc1scc(C(=O)N/N=C/c2ccc([N+](=O)[O-])o2)c1C | 15.7
Cc1c(CCOC(=O)c2ccc(Cl)cc2Cl)sc[n+]1CC(=O)c1ccc(Br)cc1 | 29.3
CN1CCN(c2ccccc2NC(=O)c2ccc([N+](=O)[O-])o2)CC1 | 10
O=C(/C=C/c1ccc([N+](=O)[O-])s1)N1CCCCC1 | 30.7

Compound | AC50 [µM]
Cc1c(NC(=O)c2ccc([N+](=O)[O-])o2)cccc1-c1nc2ncccc2o1 | 15.4
CCc1ccccc1NC(=O)CN(C)C(=O)Cn1ncc(Cl)c(Cl)c1=O | 11.8
O=C(Cn1ncc(Cl)c(Cl)c1=O)N1CCc2ccccc21 | 5.98
Cc1cc2ncn(/N=C/c3ccc([N+](=O)[O-])o3)c2cc1C | 15.9
O=C(Cn1ncc(Cl)c(Cl)c1=O)NCC1CCCCC1 | 9.94
COc1cccc(C(=O)Oc2c(CN3CCOCC3)cc(Cl)c3cccnc23)c1 | 30.7
O=c1c(Cl)c(Cl)cnn1-c1ccccc1 | 5.84
CCN1CCN(c2ccc(S(=O)(=O)N3CCCCC3)cc2NC(=O)/C=C/c2ccc([N+](=O)[O-])cc2)CC1 | 23.9
O=[N+]([O-])c1ccc(/C=N/N=C/c2ccc([N+](=O)[O-])o2)o1 | 12.9
Cc1cccc(NC(=O)CNC(=O)Cn2ncc(Cl)c(Cl)c2=O)c1C | 14.1
CCN1CCN(C2=C(NS(=O)(=O)c3ccc(C)cc3)C(=O)c3ccccc3C2=O)CC1 | 11.9
CCN1CCN(c2ccc(S(=O)(=O)N3CCCCC3)cc2NC(=O)/C=C/c2cccc(OC)c2OC)CC1 | 29.7
O=C(N/N=C/c1ccc([N+](=O)[O-])o1)c1cc2ccccc2o1 | 10.5
COC(=O)C1=C(C)N(Cc2ccccc2)C(=NCC(C)C)N[C@H]1c1cccc(C(F)(F)F)c1 | 16.9
CCOC(=O)CSC1=NC(=O)/C(=C\c2ccc(Cl)cc2)S1 | 16.2
O=C(N/N=C\c1ccc([N+](=O)[O-])o1)C1COc2ccccc2O1 (centres undefined) | 32.7
COc1ccc(C(=O)/C=C/C(=O)N(CC(=O)NC2CCCCC2)Cc2ccccc2OC)c(O)c1 | 4.63
COc1cccc(CNCCc2c[nH]c3ccccc23)c1OCc1ccccc1 | 17.9
CC(C)C(=O)N1CCN(c2ccc(NC(=O)c3ccc([N+](=O)[O-])o3)cc2)CC1 | 12.8
C#CCCc1ccccc1/C=[N+](/C)[O-] | 28.8
CCN(CC)CCNC(=O)c1c(C)n(-c2ccccc2)c2cc(Br)c(OC)cc12 | 18.9
CC1CCC(C(C)C)C(OC(=O)C[n+]2cc(-c3ccc(Cl)cc3)n3c2CCCCC3)C1 (centres undefined) | 18

Compound | AC50 [µM]
CCN(CC)CCn1nc2c3c(cccc3c1=O)-c1ccccc1-2 | 28.4
FC(F)(F)c1cc(CCN2CCNC[C@@H]2Cc2ccccc2)cc(C(F)(F)F)c1 | 19.3
O=C(/C=C/c1cccc([N+](=O)[O-])c1)c1cccs1 | 33.1
O=C1Nc2ccc(Br)cc2/C1=C/C(=O)c1ccc2c(c1)OCO2 | 32
O=C(CCl)Nc1cccc(Oc2ccccc2)c1 | 28.7
Nc1nc2ccccc2n1/N=C/c1ccc([N+](=O)[O-])s1 | 16.3
c1ccc(CSc2nnc(-c3ccco3)n2Cc2ccco2)cc1 | 26.4
CCC(=O)N1CCN(c2ccc(NC(=O)c3ccc([N+](=O)[O-])o3)cc2)CC1 | 12.7
COc1ccc2[nH]cc(C(=O)CCl)c2c1 | 15.1
O=C(N/N=C/c1ccc([N+](=O)[O-])o1)c1ccc(O)cc1 | 10.9
CCC(=O)N1CCN(c2ccc(NC(=O)c3ccc([N+](=O)[O-])o3)cc2Cl)CC1 | 9.97
N=c1n(CCN2CCCC2)c2ccccc2n1CC(O)c1ccc(Cl)c(Cl)c1 (centres undefined) | 22.5
Cc1ccccc1OCc1n(CC(=O)OC2CC(C)CCC2C(C)C)c2ccccc2[n+]1C (centres undefined) | 9.18
COc1ccccc1-c1cc(C(F)(F)F)nc(S(C)(=O)=O)n1 | 19.6
CN(C)S(=O)(=O)c1ccc(-c2csc(N/N=C/c3ccc(O)cc3)n2)cc1 | 21.2
O=C1C(Cl)=C(Nc2ccccc2)C(=O)c2ccccc21 | 5.66
COCCN(CC(=O)NC1CCCCC1)C(=O)/C=C/C(=O)c1ccc(OC)cc1O | 6.68
CCS(=O)(=O)c1ccc(N=Nc2ccc(O)c3ncccc23)c(OC)c1 | 5.85
Nc1c(N(CCC2=CCCCC2)C(=O)COc2ccc(F)cc2)c(=O)[nH]c(=O)n1Cc1ccccc1 | 15.8
COc1ccc(-n2c(C)cc(C(=O)CCl)c2C)cc1 | 19.3
Cc1cc(Br)ccc1NC(=O)CNC(=O)Cn1ncc(Cl)c(Cl)c1=O | 5.54
C=C1C(=O)O[C@@H]2[C@H]1[C@@H](OC(=O)/C(C)=C/C)C/C(C)=C\C(=O)/C=C(\C)[C@@H]2O | 6.41

Compound | AC50 [µM]
COc1cccc(/C=N/Nc2ccc(C(=O)O)cc2)c1O | 33.2
CCCCN(C)CC(O)Cn1cc(/C=C/C(=O)c2cccs2)c2ccccc21 (centres undefined) | 18.6
CCc1cc[n+](C2=C([O-])c3ccccc3C(=O)/C2=N\S(=O)(=O)c2cccs2)cc1 | 4.51
O=C1C=C(N(CCO)Cc2ccccc2)c2ccccc2C1=O | 16
COc1cc(NC(=O)COc2ccccc2[N+](=O)[O-])ccc1NC(=O)c1cccs1 | 26.7
Cc1nc2ccccc2n1/N=C/c1ccc([N+](=O)[O-])s1 | 26.4
COc1ccc2nc(N3CCN(C(=O)c4ccc([N+](=O)[O-])o4)CC3)sc2c1 | 21.7
CC1CCC(C(C)C)C(OC(=O)Cn2c(-c3ccccc3)[n+](C)c3ccccc32)C1 (centres undefined) | 9.63
O=C(CNC(=O)c1cccc(F)c1)N/N=C/c1ccc([N+](=O)[O-])s1 | 25.1
CCN1CCN(C2=C(NS(=O)(=O)c3ccc(Br)cc3)C(=O)c3ccccc3C2=O)CC1 | 20.1
CS(=O)(=O)N1CCN(c2ccc(NC(=O)c3ccc([N+](=O)[O-])o3)cc2)CC1 | 16.7
O=C(C#Cc1ccccc1)c1cccc([N+](=O)[O-])c1 | 10.8
O=C(c1ccccc1)c1cc(Cl)ccc1N1C(=O)C=CC1=O | 9.06
Cc1ccc(-c2nnc(SCC(=O)Nc3ccccc3F)o2)cc1 | 19.7
COc1ccccc1CNCC(O)Cn1c2ccccc2c2ccccc21 (centres undefined) | 20
CCOC(=O)N1C(=O)[C@@](CC)(c2ccccc2)N1C(=O)OCC | 26.2
N#C/C(=C(/O)c1ccc([N+](=O)[O-])o1)c1nc2ccccc2[nH]1 | 9.62
COc1ccc(C)c2sc(N(CCN(C)C)C(=O)/C=C/c3cccs3)nc12 | 25.1
COc1ccccc1NC(=O)c1nc(S(=O)(=O)Cc2ccccc2)ncc1Cl | 6.97
O=C(Nc1ccc(N2CCN(C(=O)c3ccc(Cl)cc3)CC2)cc1)c1ccc([N+](=O)[O-])o1 | 16.7
COC1=C(Nc2ccccc2)C(=O)c2ccccc2C1=O | 22
O=C(N/N=C/c1ccc([N+](=O)[O-])o1)c1ccccc1-n1cccc1 | 32.1

Compound | AC50 [µM]
COc1ccc(C[C@H]2CN3C(=NC[C@@H]3C(C)C)N2CCNC(=O)c2ccc(C)c(Br)c2)cc1 | 27.1
COc1ccc(-c2cc3c(nn2)-c2ccccc2C3=O)cc1 | 14.5
O=C1/C(=N\S(=O)(=O)c2cccs2)C([n+]2ccccc2)=C([O-])c2ccccc21 | 3.81
CC1(C)Cc2ccccc2C2=NNC(=O)C2=N1 | 7
CN1CCN(C2=C(NS(=O)(=O)c3cccs3)C(=O)c3ccccc3C2=O)CC1 | 14.6
COC1=C(c2ccccc2)C(=O)c2ccccc2C1=O | 20.3
CCN1CCN(c2ccc(NC(=O)c3ccc([N+](=O)[O-])o3)cc2Cl)CC1 | 14.4
CCn1c(/C=C/Nc2ccccc2)[n+](CC)c2cc(Cl)c(Cl)cc21 | 29.6
O=C(NC1=C(Nc2ccc(Cl)cc2)C(=O)c2ccccc2C1=O)c1ccccc1 | 20.3
Cc1[nH]nc2nc(SCC(=O)NCCC3=CCCCC3)n(-c3ccc(Br)cc3)c(=N)c12 | 20.5
O=C1c2ccccc2C(=O)c2c1ncn2-c1ccccc1 | 19.2
CC[n+]1c(-c2ccccc2)c2cc(N)ccc2c2ccc(N)cc21 | 23.3
N=c1n(CC(=O)c2ccc(Br)s2)c2ccccc2n1Cc1ccccc1 | 24.7
Cc1ccc(-n2nnnc2CNC(=O)c2ccc([N+](=O)[O-])o2)cc1C | 21.5
Cc1ccc(NC2=C(Cl)C(=O)c3ccccc3C2=O)cc1 | 6.96
CCCOCc1ccc(O)c2ncccc12 | 32.2
CC(C)(C)C(=O)Cn1ncc(Br)c(Br)c1=O | 17.7
CCN(CC)S(=O)(=O)c1ccc(NC(=O)c2cccnc2Cl)c(NC(=O)c2cccnc2Cl)c1 | 25.6
CC1(C)CC(NC(=O)c2ccc(Cl)c(S(=O)(=O)N(Cc3ccccc3)c3ccccc3)c2)CC(C)(C)N1 | 22.7
CCOc1ccc2nc(NC3=NC(c4ccc(OC)cc4)CC(=O)N3)nc(C)c2c1 (centres undefined) | 24.6
CC(C)(C)c1ccc(OCCCNCc2ccccc2)cc1 | 27.4
